The values below come from PubChem BioAssay (NCI).

Values joined by “and” are separate entries in the source; they are usually repeats but may differ in a detail not shown here. Equal entries are not always repeated.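 Grown in 96-well plates, cells were treated for 48 hours with each compound at five concentrations. Insufficient inhibition: endpoint recorded as highest concentration tested. GI50 marks 50% less growth. TGI denotes the concentration required for complete inhibition of growth.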

Among the test systems are 786-0 renal; ACHN renal; HOP-62 NSCLC; KM12 colon; NCI-H522 lung; SK-MEL-2 melanoma; SK-MEL-28 melanoma; SNB-19 CNS; UO-31 renal; HS 578T breast.
Holding throughout (test): NCI anticancer screen, dose series, 48 h

Regarding `O=c1[nH]c2ccccc2cc1C(Cl)=C(Cl)Cl`, the TGI in the experiment on 786-0 renal, with ACHN renal, in the experiment with HOP-62 NSCLC, with KM12 colon, in the experiment on NCI-H522 lung and in the experiment on SK-MEL-2 melanoma was over 100 µM each time. In addition, the TGI with SK-MEL-28 melanoma, in the experiment with SNB-19 CNS and in the experiment with UO-31 renal was over 100 µM throughout.
For `O=C1CCCN(c2ccccc2)N1`, the TGI in the experiment on 786-0 renal, in the experiment with ACHN renal, with HOP-62 NSCLC, in the experiment with KM12 colon, in the experiment on NCI-H522 lung and in the experiment with SK-MEL-2 melanoma was over 100 µM each time. Also, the TGI in the experiment on SK-MEL-28 melanoma, with SNB-19 CNS and with UO-31 renal was over 100 µM throughout.
`CCOC(=O)C1(CC)CCCCC(=O)N1` (stereo not given): the TGI in the experiment on 786-0 renal, in the experiment with ACHN renal, in the experiment with HOP-62 NSCLC, with SK-MEL-28 melanoma and with UO-31 renal was over 100 µM in each case.
On to `CCOC(=O)CC1=Nc2ccccc2SC1`, for which the TGI with 786-0 renal, in the experiment with ACHN renal, in the experiment with HOP-62 NSCLC, in the experiment with KM12 colon, in the experiment with NCI-H522 lung and in the experiment on SK-MEL-2 melanoma was over 100 µM in each case. Besides, the TGI is 2.73 µM with SK-MEL-28 melanoma, over 100 µM in the experiment on SNB-19 CNS and over 100 µM in the experiment on UO-31 renal.
On to `CCc1c2c(nc3cc4c(cc13)OCO4)-c1cc3c(c(=O)n1C2)COC(=O)[C@]3(O)CC`, for which the TGI is over 100 µM with 786-0 renal; 0.146 µM and 0.0376 µM in the experiment with ACHN renal; over 100 µM in the experiment with HOP-62 NSCLC; over 100 µM with HS 578T breast; over 100 µM in the experiment with KM12 colon; over 100 µM in the experiment on SK-MEL-28 melanoma. The TGI in the experiment on SNB-19 CNS is 0.455 µM; with UO-31 renal, 0.401 µM and 0.0689 µM. For the same molecule, the GI50 in the experiment on ACHN renal is under 0.001 µM; with KM12 colon, 0.184 µM and 0.191 µM; in the experiment with SK-MEL-28 melanoma, 0.764 µM and 1.14 µM; in the experiment with SNB-19 CNS, 0.0164 µM; with UO-31 renal, 0.0103 µM.
In the case of `Cc1ccc(-c2c(N)nc(NC#N)nc2CCC(=O)Nc2ccccc2[N+](=O)[O-])cc1`, the TGI with 786-0 renal, in the experiment on ACHN renal, in the experiment on HOP-62 NSCLC, in the experiment with KM12 colon, with NCI-H522 lung and with SK-MEL-2 melanoma was over 100 µM each time. The TGI in the experiment on SK-MEL-28 melanoma, in the experiment with SNB-19 CNS and in the experiment on UO-31 renal was over 100 µM each time.
On to `C#CCNC(=O)NC(CCCNC(=O)OCc1ccccc1)C(=O)OCc1ccccc1` (stereo not given), for which the TGI with 786-0 renal is over 100 µM; with ACHN renal, over 100 µM; in the experiment with HOP-62 NSCLC it was over 100 µM; in the experiment on KM12 colon it was over 100 µM; in the experiment with NCI-H522 lung it was 62.7 µM; in the experiment with SK-MEL-2 melanoma, over 100 µM. Besides, the TGI in the experiment on SK-MEL-28 melanoma, in the experiment with SNB-19 CNS and in the experiment with UO-31 renal was over 100 µM each time.
Consider `CCCCCCCCCCCCC(=O)OC(c1cnco1)c1nc(C(O)CC(O)C(O)C(C)O)co1` (stereo not given), for which the GI50 in the experiment on 786-0 renal is 1.02 µM; in the experiment with ACHN renal, 6.38 µM; in the experiment with KM12 colon, 0.359 µM; with NCI-H522 lung, 3.18 µM; in the experiment on SK-MEL-2 melanoma, 4.79 µM; in the experiment with SK-MEL-28 melanoma it was 0.686 µM. In addition, the GI50 with UO-31 renal was 5.77 µM. In addition, the TGI was over 100 µM in the experiment on 786-0 renal; over 71.9 µM with ACHN renal; over 100 µM in the experiment with HOP-62 NSCLC; 21.9 µM in the experiment with KM12 colon; over 25.1 µM in the experiment on NCI-H522 lung; over 66 µM in the experiment on SK-MEL-2 melanoma. For the same molecule, the TGI is over 64.2 µM in the experiment on SK-MEL-28 melanoma, over 100 µM in the experiment on SNB-19 CNS and over 100 µM with UO-31 renal.
As for `O=C1NC(c2ccc(O)cc2)C2CCC1C2` (stereo not given), the TGI in the experiment on 786-0 renal, with ACHN renal, in the experiment on HOP-62 NSCLC, with KM12 colon, in the experiment on NCI-H522 lung and in the experiment with SK-MEL-2 melanoma was over 100 µM each time. Besides, the TGI with SK-MEL-28 melanoma, with SNB-19 CNS and in the experiment with UO-31 renal was over 100 µM each time.
With `CCC(C)C1NC(=O)c2nc(oc2-c2ccccc2)-c2csc(n2)-c2csc(n2)-c2nc(oc2C)-c2coc(n2)CNC(=O)C(C(C)CC)NC1=O` (stereo not given), the GI50 in the experiment on 786-0 renal is 0.0499 µM; in the experiment on ACHN renal, 0.0188 µM; in the experiment with HS 578T breast, 0.0424 µM; in the experiment on KM12 colon, 0.0223 µM; with UO-31 renal, 0.0515 µM. Also, the TGI in the experiment with 786-0 renal is 0.172 µM; with ACHN renal, 0.114 µM; in the experiment with HS 578T breast, 0.218 µM; with KM12 colon, 0.119 µM; in the experiment with UO-31 renal, 0.185 µM.
As to `O=C1NC2(CCCC2)C(=O)C12CCCC2`, the TGI in the experiment with 786-0 renal, in the experiment on ACHN renal, in the experiment on HOP-62 NSCLC, in the experiment on KM12 colon, in the experiment with NCI-H522 lung and in the experiment on SK-MEL-2 melanoma was over 100 µM throughout. The TGI with SK-MEL-28 melanoma, in the experiment with SNB-19 CNS and in the experiment on UO-31 renal was over 100 µM in each case.
For `CC(=O)OC1=C2CC3(C)OC(=O)CC(C)(C)C3=CC=C2C=C(C(C)C)C1=O` (stereo not given), the TGI in the experiment with 786-0 renal came to 0.388 µM; in the experiment with ACHN renal, 1.76 µM; in the experiment on HOP-62 NSCLC, 19.9 µM; with KM12 colon, 3.07 µM; with NCI-H522 lung, 0.41 µM; with SK-MEL-2 melanoma, 1.65 µM. For the same molecule, the TGI in the experiment with SK-MEL-28 melanoma was found to be 1.31 µM; in the experiment with SNB-19 CNS, 3.28 µM; in the experiment on UO-31 renal, 3.12 µM.
As for `CCOC(=O)C1=C(C)Nc2ccccc2S1`, the TGI in the experiment with 786-0 renal, with ACHN renal, in the experiment with HOP-62 NSCLC, with KM12 colon, with NCI-H522 lung and with SK-MEL-2 melanoma was over 100 µM throughout. Further, the TGI with SK-MEL-28 melanoma, in the experiment on SNB-19 CNS and in the experiment with UO-31 renal was over 100 µM throughout.
